As a reminder, the pEC50 is the negative decadic logarithm of the EC50, by convention in mol/L.

pEC50: −log10 of the molar value. Where a name gives a salt, the structure may show the parent alone.

The values that follow come from patent US8436178B2, “Imidazoquinolines with immuno-modulating properties” (AstraZeneca AB, priority 2007, dated 2013).

This experiment addresses T1, human TLR7 (Homo sapiens, UniProt Q9NYK1).
T1 construct: expressed in transfected cells; host or cells: HEK293 cell line stably expressing the pNiFty2-SEAP reporter plasmid; TLR7 in pUNO vector, blasticidin selection
T1 sequence (Q9NYK1 27-1049): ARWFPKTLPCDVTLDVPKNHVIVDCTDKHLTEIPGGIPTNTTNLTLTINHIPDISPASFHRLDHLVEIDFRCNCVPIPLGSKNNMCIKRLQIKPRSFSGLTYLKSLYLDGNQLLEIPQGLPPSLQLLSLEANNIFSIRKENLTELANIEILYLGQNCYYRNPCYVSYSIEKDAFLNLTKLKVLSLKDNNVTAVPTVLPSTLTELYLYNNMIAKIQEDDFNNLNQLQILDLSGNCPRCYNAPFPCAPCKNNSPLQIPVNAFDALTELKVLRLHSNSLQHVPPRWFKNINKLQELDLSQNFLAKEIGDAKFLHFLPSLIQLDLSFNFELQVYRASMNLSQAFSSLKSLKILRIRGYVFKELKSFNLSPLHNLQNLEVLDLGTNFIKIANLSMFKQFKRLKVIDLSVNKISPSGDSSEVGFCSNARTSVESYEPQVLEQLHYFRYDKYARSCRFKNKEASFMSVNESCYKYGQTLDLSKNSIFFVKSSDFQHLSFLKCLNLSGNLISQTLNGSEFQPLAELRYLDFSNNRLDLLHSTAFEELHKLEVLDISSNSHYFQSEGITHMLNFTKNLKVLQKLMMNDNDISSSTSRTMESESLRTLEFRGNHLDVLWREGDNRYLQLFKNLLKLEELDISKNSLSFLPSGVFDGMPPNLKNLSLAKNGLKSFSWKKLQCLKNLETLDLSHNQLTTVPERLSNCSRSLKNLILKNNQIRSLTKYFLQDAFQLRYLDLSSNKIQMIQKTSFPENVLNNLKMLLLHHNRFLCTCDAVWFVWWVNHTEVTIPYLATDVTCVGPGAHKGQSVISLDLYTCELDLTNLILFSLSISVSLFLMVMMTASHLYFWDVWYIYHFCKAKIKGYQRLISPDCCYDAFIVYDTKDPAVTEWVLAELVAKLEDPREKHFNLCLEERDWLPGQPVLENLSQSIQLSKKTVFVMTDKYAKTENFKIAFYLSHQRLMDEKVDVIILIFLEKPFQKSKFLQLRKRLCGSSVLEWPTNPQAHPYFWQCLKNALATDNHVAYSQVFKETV
In words: Human TLR7 assay (SEAP reporter in HEK293 cells). In kind it is cell-based. The note with it: SEAP induction in HEK293 cells expressing human TLR7, overnight incubation at 37° C., 0.1% DMSO.
Description: The most common variant sequence of human TLR7 (represented by the EMBL sequence AF240467) was cloned into the mammalian cell expression vector pUNO and transfected into a HEK293 cell line already stably expressing the pNiFty2-SEAP reporter plasmid; integration of the reporter gene was maintained by selection with the antibiotic zeocin. Transfectants with stable TLR7 expression were selected using the antibiotic blasticidin. In this reporter cell-line, expression of secreted alkaline phosphatase (SEAP) is controlled by an NFkB/ELAM-1 composite promoter comprising five NFkB sites combined with the proximal ELAM-1 promoter. TLR signaling leads to the translocation of NFkB and activation of the promoter results in expression of the SEAP gene. TLR7-specific activation was assessed by determining the level of SEAP produced following overnight incubation of the cells at 37° C. with the standard compound in the presence of 0.1% (v/v) dimethylsulfoxide (DMSO). Concentration dependent induction of SEAP production by compounds was expressed as the concentration of compound which produced half of the maximal level of SEAP induction for that compound (pEC50).
Take `CCCCc1nc2c(N)nc3ccccc3c2n1CCCNCc1ccc(CC(=O)OC)cc1` [Example 1, Methyl 2-(4-((3-(4-amino-2-butyl-1H-imidazo[4,5-c]quinolin-1-yl)propylamino)methyl)phenyl)acetate]: the pEC50 was 6.50. The figure for `CCCCc1nc2c(N)nc3ccccc3c2n1CCCNCc1cccc(CC(=O)OC)c1` [Example 2, Methyl 2-(3-((3-(4-amino-2-butyl-1H-imidazo[4,5-c]quinolin-1-yl)propylamino)methyl)phenyl)acetate] is 6.40; for `CCCCc1nc2c(N)nc3ccccc3c2n1CCCN(Cc1cccc(CC(=O)OC)c1)C(=O)CN(C)C` [Example 4, Methyl 2-(3-((N-(3-(4-amino-2-butyl-1H-imidazo[4,5-c]quinolin-1-yl)propyl)-2-(dimethylamino)acetamido)methyl)phenyl)acetate] it is 7.40. The figure for `CCOCc1nc2c(N)nc3ccccc3c2n1CC1CCN(Cc2cccc(CC(=O)OC)c2)CC1` [Example 5, di-trifluoroacetate salt] is 6.50; for `CCCCc1nc2c(N)nc3ccccc3c2n1CCCN(CCN(C)C)Cc1ccc(CC(=O)OC)cc1` [Example 6, Methyl[4-({[3-(4-amino-2-butyl-1H-imidazo[4,5-c]quinolin-1-yl)propyl][2-(dimethylamino)ethyl]amino}methyl)phenyl]acetate] it is 6.60; for `CCOCc1nc2c(N)nc3ccccc3c2n1CCCN(Cc1cccc(CC(=O)OC)c1)C(=O)CN(C)C` [Example 7, Methyl 2-(3-((N-(3-(4-amino-2-(ethoxymethyl)-1H-imidazo[4,5-c]quinolin-1-yl)propyl)-2-(dimethylamino)acetamido)methyl)phenyl)acetate] it is 6.40. The figure for `CCCCc1nc2c(N)nc3ccccc3c2n1CCCN(Cc1cccc(CC(=O)OC)c1)C1CCN(C)CC1` [Example 8, Methyl 2-(3-(((3-(4-amino-2-butyl-1H-imidazo[4,5-c]quinolin-1-yl)propyl)(1-methylpiperidin-4-yl)amino)methyl)phenyl)acetate] is 6.50; for `CCCCc1nc2c(N)nc3ccccc3c2n1CCCN(Cc1ccc(CC(=O)OC)cc1)C1CCN(C)CC1` [Example 9, Methyl 2-(4-(((3-(4-amino-2-butyl-1H-imidazo[4,5-c]quinolin-1-yl)propyl)(1-methylpiperidin-4-yl)amino)methyl)phenyl)acetate] it is 6.20.

`CCCCc1nc2c(N)nc3ccccc3c2n1CCCN(Cc1ccc(CC(=O)OC)cc1)C(=O)CN1CCN(C)CC1` [Example 10, Methyl 2-(4-((N-(3-(4-amino-2-butyl-1H-imidazo[4,5-c]quinolin-1-yl)propyl)-2-(4-methylpiperazin-1-yl)acetamido)methyl)phenyl)acetate] gave a pEC50 of 6.30.

For `CCCCc1nc2c(N)nc3ccccc3c2n1CCCN(CCCN(C)C)Cc1cccc(CC(=O)OC)c1` [Example 11, Methyl 2-(3-(((3-(4-amino-2-butyl-1H-imidazo[4,5-c]quinolin-1-yl)propyl)(3-(dimethylamino)propyl)amino)methyl)phenyl)acetate], the pEC50 was 6.60. `CCCCc1nc2c(N)nc3ccccc3c2n1CCCN(CCCN1CCOCC1)Cc1cccc(CC(=O)OC)c1` [Example 12, Methyl 2-(3-(((3-(4-amino-2-butyl-1H-imidazo[4,5-c]quinolin-1-yl)propyl)(3-morpholinopropyl)amino)methyl)phenyl)acetate]: the pEC50 is 6.60. With `CCCCc1nc2c(N)nc3ccccc3c2n1CCCN(CCCN(C)CC)Cc1cccc(CC(=O)OC)c1` [Example 13, Methyl 2-(3-(((3-(4-amino-2-butyl-1H-imidazo[4,5-c]quinolin-1-yl)propyl)(3-(ethyl(methyl)amino)propyl)amino)methyl)phenyl)acetate] the figure was 6.80; with `CCCCc1nc2c(N)nc3ccccc3c2n1CCCN(CCCN1CCN(C)CC1)Cc1cccc(CC(=O)OC)c1` [Example 14, Methyl 2-(3-(((3-(4-amino-2-butyl-1H-imidazo[4,5-c]quinolin-1-yl)propyl)(3-(4-methylpiperazin-1-yl)propyl)amino)methyl)phenyl)acetate], 6.60. In turn, `CCCCc1nc2c(N)nc3ccccc3c2n1CCCN(Cc1ccc(CC(=O)OC)cc1)C(=O)CS(C)(=O)=O` [Example 15, Methyl 2-(4-((N-(3-(4-amino-2-butyl-1H-imidazo[4,5-c]quinolin-1-yl)propyl)-2-(methylsulfonyl)acetamido)methyl)phenyl)acetate] had a pEC50 of 6.40.

`CCCCc1nc2c(N)nc3ccccc3c2n1CCCN(Cc1ccc(CC(=O)OC)cc1)C(C)=O` [Example 16, Methyl 2-(4-((N-(3-(4-amino-2-butyl-1H-imidazo[4,5-c]quinolin-1-yl)propyl)acetamido)methyl)phenyl)acetate]: the negative logarithm of the EC50 (pEC50) was 6.90.

Molecule `CCCCc1nc2c(N)nc3ccccc3c2n1CCCN(Cc1ccc(CC(=O)OC)cc1)C(=O)CN1CCOCC1` [Example 17, Methyl 2-(4-((N-(3-(4-amino-2-butyl-1H-imidazo[4,5-c]quinolin-1-yl)propyl)-2-morpholinoacetamido)methyl)phenyl)acetate] showed a pEC50 of 6.80. With `CCCCc1nc2c(N)nc3ccccc3c2n1CCCN(Cc1ccc(CC(=O)OC)cc1)C(=O)CN(C)CCOC` [Example 18] the figure was 7.20; with `CCCCc1nc2c(N)nc3ccccc3c2n1CCCN(Cc1ccc(CC(=O)OC)cc1)C(=O)CN1CCN(C(C)=O)CC1` [Example 19, Methyl 2-(4-((2-(4-acetylpiperazin-1-yl)-N-(3-(4-amino-2-butyl-1H-imidazo[4,5-c]quinolin-1-yl)propyl)acetamido)methyl)phenyl)acetate], 6.60; with `CCCCc1nc2c(N)nc3ccccc3c2n1CCCN(Cc1ccc(CC(=O)OC)cc1)C(=O)CN1CC[C@@H](O)C1` [Example 20, (R)-Methyl 2-(4-((N-(3-(4-amino-2-butyl-1H-imidazo[4,5-c]quinolin-1-yl)propyl)-2-(3-hydroxypyrrolidin-1-yl)acetamido)methyl)phenyl)acetate], 6.60. Regarding `CCCCc1nc2c(N)nc3ccccc3c2n1CCCN(Cc1ccc(CC(=O)OC)cc1)C(=O)CN1CCN(c2ncccn2)CC1` [Example 21, Methyl 2-(4-((N-(3-(4-amino-2-butyl-1H-imidazo[4,5-c]quinolin-1-yl)propyl)-2-(4-(pyrimidin-2-yl)piperazin-1-yl)acetamido)methyl)phenyl)acetate], the pEC50 was 6.20. With `CCCCc1nc2c(N)nc3ccccc3c2n1CCCN(Cc1ccc(CC(=O)OC)cc1)C(=O)CN1CCN(C(=O)OCC)CC1` [Example 22, Ethyl 4-(2-((3-(4-amino-2-butyl-1H-imidazo[4,5-c]quinolin-1-yl)propyl)(4-(2-methoxy-2-oxoethyl)benzyl)amino)-2-oxoethyl)piperazine-1-carboxylate] the figure was 6.20; with `CCCCc1nc2c(N)nc3ccccc3c2n1CCCN(Cc1ccc(CC(=O)OC)cc1)C(=O)CN1CCN(S(=O)(=O)CC)CC1` [Example 23, Methyl 2-(4-((N-(3-(4-amino-2-butyl-1H-imidazo[4,5-c]quinolin-1-yl)propyl)-2-(4-(ethylsulfonyl)piperazin-1-yl)acetamido)methyl)phenyl)acetate], 6.60; with `CCCCc1nc2c(N)nc3ccccc3c2n1CCCN(Cc1ccc(CC(=O)OC)cc1)C(=O)CN1CCCCC1` [Example 24, Methyl 2-(4-((N-(3-(4-amino-2-butyl-1H-imidazo[4,5-c]quinolin-1-yl)propyl)-2-(piperidin-1-yl)acetamido)methyl)phenyl)acetate], 7.10. The figure for `CCCCc1nc2c(N)nc3ccccc3c2n1CCCN(Cc1ccc(CC(=O)OC)cc1)C(=O)CN1CCC(NC(=O)OC(C)(C)C)CC1` [Example 25, Methyl 2-(4-((N-(3-(4-amino-2-butyl-1H-imidazo[4,5-c]quinolin-1-yl)propyl)-2-(4-(tert-butoxycarbonylamino)piperidin-1-yl)acetamido)methyl)phenyl)acetate] is 6.70. The figure for `CCCCc1nc2c(N)nc3ccccc3c2n1CCCN(Cc1ccc(CC(=O)OC)cc1)C(=O)CN1CCC(N(C)C(=O)OC(C)(C)C)CC1` [Example 26, Methyl 2-(4-((N-(3-(4-amino-2-butyl-1H-imidazo[4,5-c]quinolin-1-yl)propyl)-2-(4-(tert-butoxycarbonyl(methyl)amino)piperidin-1-yl)acetamido)methyl)phenyl)acetate] is 6.50.
